The subject of test [1] is A431, human epidermoid carcinoma cells. The test is described as follows: Cell cycle analysis (FACS), mitotic arrest in G2/M. In kind it is cell-based. The conditions noted are these: read-out: FACS Assay: concentration required to achieve inhibition in FACS assay. In outline: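 A431 cells, 500,000/well at treatment, exposed to compounds at 0.01–1 μM final (0.1% DMSO) for 24 h. Ethanol-fixed cells RNase-treated (1 μg/ml, 37° C., 15 min), stained with propidium iodide (50 μg/ml, 30 min, RT). DNA ploidy by flow cytometry; mitotic arrest scored as G2/M accumulation.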

The test system of a further test is bovine tubulin. The test is described as follows: In vitro tubulin polymerization assay (turbidity at 340 nm). It counts as biochemical. The conditions noted are these: 10 μM compound, 30 minute data point, vs 1% DMSO control. The gist of the method: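 Bovine tubulin (97%, <3% MAPs) at 3 mg/ml final in G-PEM pH 7 with 1 mM GTP and 5% glycerol, added cold to compound wells at 37° C (1% DMSO final). A340 read each minute for 30 min; percent inhibition from 30-min point versus DMSO control.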

Each structure is given as a SMILES string. Where two headings read alike, the source gives them in different places.

Regarding `c1cnc(NCc2ccc3c(c2)OCCO3)c(-c2nnc(Nc3ccc4c(c3)OCO4)o2)c1` [Compound 196, {3-[5-(Benzo[1,3]dioxol-5-ylamino)-[1,3,4]oxadiazol-2-yl]-pyridin-2-yl}-(2,3-dihydro-benzo[1,4]dioxin-6-ylmethyl)-amine], the minimal effective concentration in test [1] (Homo sapiens, A-431, 24 h) was 1 µM. Further, the “Tubulin Assay: percent inhibition at 10 μM based on 30 minute data” value (“Tubulin Assay: percent inhibition” below) in the test with bovine tubulin turned out to be 93%.
`COc1cc(Nc2nnc(-c3cccnc3NCc3ccco3)o2)cc(OC)c1OC` [Compound 197, Furan-2-ylmethyl-{3-[5-(3,4,5-H trimethoxy-phenylamino)-[1,3,4]oxadiazol-2-yl]-pyridin-2-yl}-amine]: in test [1] (Homo sapiens, A-431, 24 h), the minimal effective concentration was 1 µM. Besides, the “Tubulin Assay: percent inhibition” value with bovine tubulin is on record as 66%.
The like results for `c1cnc(NCc2ccc3c(c2)CCO3)c(-c2nnc(Nc3ccc4c(c3)OCO4)o2)c1` [Compound 198, {3-[5-(Benzo[1,3]dioxol-5-ylamino)-[1,3,4]oxadiazol-2-yl]-pyridin-2-yl}-(2,3-dihydro-benzofuran-5-ylmethyl)-amine] were, in that order, 0.1 µM and 87%.
Turning to `c1cnc(NCc2ccc3c(c2)CCO3)c(-c2nnc(Nc3ccc4c(c3)OCCO4)o2)c1` [Compound 199, {3-[5-(2,3-Dihydro-benzo[1,4]dioxin-6-ylamino)-[1,3,4]oxadiazol-2-yl]-pyridin-2-yl}-(2,3-dihydro-benzofuran-5-ylmethyl)-amine], the minimal effective concentration in test [1] (Homo sapiens, A-431, 24 h) is 0.1 µM. Further, the “Tubulin Assay: percent inhibition” value in the test on bovine tubulin was 88%.
The like results for `c1cnc(NCC2COCCO2)c(-c2nnc(Nc3ccc4c(c3)OCO4)o2)c1` (centres unmarked) [Compound 202, {3-[5-(Benzo[1,3]dioxol-5-ylamino)-[1,3,4]oxadiazol-2-yl]-pyridin-2-yl}-[1,4]dioxan-2-ylmethyl-amine] were, in that order, 0.1 µM and 89%.
The like results for `c1cnc(NCC2COCCO2)c(-c2nnc(Nc3ccc4c(c3)OCCO4)o2)c1` (centres unmarked) [Compound 203, {3-[5-(2,3-Dihydro-benzo[1,4]dioxin-6-ylamino)-[1,3,4]oxadiazol-2-yl]-pyridin-2-yl}-[1,4]dioxan-2-ylmethyl-amine] were, in that order, 0.1 µM and 69%.
Turning to `c1coc(CNc2ncccc2-c2nnc(Nc3ccc4c(c3)OCCO4)o2)c1` [Compound 205, {3-[5-(2,3-Dihydro-benzo[1,4]dioxin-6-ylamino)-[1,3,4]oxadiazol-2-yl]-pyridin-2-yl}-furan-2-ylmethyl-amine], in test [1] (24 hours), the minimal effective concentration is recorded as 1 µM. In addition, in the test with bovine tubulin, the “Tubulin Assay: percent inhibition” value amounted to 56%.
Take `c1cnc(NCc2ccncc2)c(-c2nnc(Nc3ccc4c(c3)OCCO4)o2)c1` [Compound 206, {3-[5-(2,3-Dihydro-benzo[1,4]dioxin-6-ylamino)-[1,3,4]oxadiazol-2-yl]-pyridin-2-yl}-pyridin-4-ylmethyl-amine]: the minimal effective concentration in test [1] (Homo sapiens, A-431, 24 h) came to 0.025 µM. Also, the “Tubulin Assay: percent inhibition” value in the test on bovine tubulin is on record as 94%.
The like results for `c1ccc(CNc2ncccc2-c2nnc(Nc3ccc4c(c3)OCCO4)o2)nc1` [Compound 207, {3-[5-(2,3-Dihydro-benzo[1,4]dioxin-6-ylamino)-[1,3,4]oxadiazol-2-yl]-pyridin-2-yl}-pyridin-2-ylmethyl-amine] were, in that order, 0.025 µM and 87%.
The like results for `c1cnc(OCc2ccc3c(c2)OCO3)c(-c2nnc(Nc3ccc4c(c3)OCCO4)o2)c1` [Compound 209, {5-[2-(Benzo[1,3]dioxol-5-ylmethoxy)-pyridin-3-yl]-[1,3,4]oxadiazol-2-yl}-(2,3-dihydro-benzo[1,4]dioxin-6-yl)-amine] were, in that order, 1 µM and 80%.
With `Brc1cnn(-c2ncccc2-c2nnc(Nc3ccc4c(c3)OCO4)o2)c1` [Compound 210, Benzo[1,3]dioxol-5-yl-{5-[2-(4-bromo-pyrazol-1-yl)-pyridin-3-yl]-[1,3,4]oxadiazol-2-yl}-amine], the minimal effective concentration in test [1] (Homo sapiens, A-431, 24 h) stood at 1 µM. Moreover, the “Tubulin Assay: percent inhibition” value in the test on bovine tubulin worked out at 87%.
In the case of `c1cncc(CNc2ccccc2-c2nnc(Nc3ccc4c(c3)OCCO4)o2)c1` [Compound 216, (2,3-Dihydro-benzo[1,4]dioxin-6-yl)-(5-{2-[(pyridin-3-ylmethyl)-amino]-phenyl}-[1,3,4]oxadiazol-2-yl)-amine], the minimal effective concentration in test [1] (Homo sapiens, A-431, 24 h) came out at 0.1 µM. Moreover, in the test on bovine tubulin, the “Tubulin Assay: percent inhibition” value turned out to be 94%.
Consider `c1ccc(CNc2ccccc2-c2nnc(Nc3ccc4c(c3)OCCO4)o2)nc1` [Compound 217, (2,3-Dihydro-benzo[1,4]dioxin-6-yl)-(5-{2-[(pyridin-2-ylmethyl)-amino]-phenyl}-[1,3,4]oxadiazol-2-yl)-amine], for which the minimal effective concentration in test [1] (Homo sapiens, A-431, 24 h) was 0.1 µM. The “Tubulin Assay: percent inhibition” value in the test on bovine tubulin came out at 100%.
The like results for `c1ccc(-c2nnc(Nc3ccc4c(c3)OCCO4)o2)c(NCc2ccc3c(c2)OCO3)c1` [Compound 218, (5-{2-[(Benzo[1,3]dioxol-5-ylmethyl)-amino]-phenyl}-[1,3,4]oxadiazol-2-yl)-(2,3-dihydro-benzo[1,4]dioxin-6-yl)-amine] were, in that order, 0.1 µM and 74%.
The like results for `COc1cc(CNc2ccccc2-c2nnc(Nc3ccc4c(c3)OCCO4)o2)cc(OC)c1` [Compound 219, (2,3-Dihydro-benzo[1,4]dioxin-6-yl)-{5-[2-(3,5-dimethoxy-benzylamino)-phenyl]-[1,3,4]oxadiazol-2-yl}-amine] were, in that order, 0.1 µM and 63%.
Consider `c1ccc(-c2nnc(Nc3ccc4c(c3)OCO4)o2)c(NCc2cn[nH]c2)c1` [Compound 224, Benzo[1,3]dioxol-5-yl-(5-{2-[(1H-pyrazol-4-ylmethyl)-amino]-phenyl}-[1,3,4]oxadiazol-2-yl)-amine], for which the minimal effective concentration in test [1] (Homo sapiens, A-431, 24 h) is 1 µM. For the same compound, the “Tubulin Assay: percent inhibition” value with bovine tubulin is 81%.
The like results for `COc1cccc(S(=O)(=O)Nc2ccccc2-c2nnc(Nc3ccc4c(c3)OCO4)o2)c1` [Compound 237, N-{2-[5-(Benzo[1,3]dioxol-5-ylamino)-[1,3,4]oxadiazol-2-yl]-phenyl}-3-methoxy-benzenesulfonamide] were, in that order, 1 µM and 99%.
The like results for `Nc1ccccc1-c1nnc(Nc2ccc3c(c2)OCCO3)o1` [Compound 241, [5-(2-Amino-phenyl)-[1,3,4]oxadiazol-2-yl]-(2,3-dihydro-benzo[1,4]dioxin-6-yl)-amine] were, in that order, 1 µM and 75%.
As for `c1ccc(-c2cnc(Nc3ccc4c(c3)OCCO4)o2)c(NCc2ccc3c(c2)OCO3)c1` [Compound 244, (5-{2-[(Benzo[1,3]dioxol-5-ylmethyl)-amino]-phenyl}-oxazol-2-yl)-(2,3-dihydro-benzo[1,4]dioxin-6-yl)-amine], the minimal effective concentration in test [1] (Homo sapiens, A-431, 24 h) was found to be 1 µM. Moreover, the “Tubulin Assay: percent inhibition” value in the test with bovine tubulin was 96%.
`COc1cc(CNc2ccccc2-c2cnc(Nc3ccc4c(c3)OCCO4)o2)cc(OC)c1` [Compound 246, (2,3-Dihydro-benzo[1,4]dioxin-6-yl)-{5-[2-(3,5-dimethoxy-benzylamino)-phenyl]-oxazol-2-yl}-amine]: the minimal effective concentration in test [1] (Homo sapiens, A-431, 24 h) was 1 µM. In the test on bovine tubulin, the “Tubulin Assay: percent inhibition” value was determined as 72%.
The like results for `COc1cccc(Nc2ncc(-c3ccccc3NCc3ccc4c(c3)OCO4)o2)c1` [Compound 249, (5-{2-[(Benzo[1,3]dioxol-5-ylmethyl)-amino]-phenyl}-oxazol-2-yl)-(3-methoxy-phenyl)-amine] were, in that order, 1 µM and 60%.
With `COc1cccc(Nc2ncc(-c3ccccc3NCc3ccc4c(c3)OCCO4)o2)c1` [Compound 250, (5-{2-[(2,3-Dihydro-benzo[1,4]dioxin-6-ylmethyl)-amino]-phenyl}-oxazol-2-yl)-(3-methoxy-phenyl)-amine], the minimal effective concentration in test [1] (Homo sapiens, A-431, 24 h) amounted to 1 µM. The “Tubulin Assay: percent inhibition” value with bovine tubulin stood at 60%.

For the origin of these results see patent US20090048301A1 (IMCLONE SYSTEMS INCORPORATED, priority 2003, published 2009).
